These results are taken from ChEMBL document CHEMBL5042504 (J Med Chem, 2022).

Assay [1] has as its target T1, Protein deacetylase HDAC6 (Homo sapiens, UniProt Q9UBN7).
T1 sequence (Q9UBN7 whole entry): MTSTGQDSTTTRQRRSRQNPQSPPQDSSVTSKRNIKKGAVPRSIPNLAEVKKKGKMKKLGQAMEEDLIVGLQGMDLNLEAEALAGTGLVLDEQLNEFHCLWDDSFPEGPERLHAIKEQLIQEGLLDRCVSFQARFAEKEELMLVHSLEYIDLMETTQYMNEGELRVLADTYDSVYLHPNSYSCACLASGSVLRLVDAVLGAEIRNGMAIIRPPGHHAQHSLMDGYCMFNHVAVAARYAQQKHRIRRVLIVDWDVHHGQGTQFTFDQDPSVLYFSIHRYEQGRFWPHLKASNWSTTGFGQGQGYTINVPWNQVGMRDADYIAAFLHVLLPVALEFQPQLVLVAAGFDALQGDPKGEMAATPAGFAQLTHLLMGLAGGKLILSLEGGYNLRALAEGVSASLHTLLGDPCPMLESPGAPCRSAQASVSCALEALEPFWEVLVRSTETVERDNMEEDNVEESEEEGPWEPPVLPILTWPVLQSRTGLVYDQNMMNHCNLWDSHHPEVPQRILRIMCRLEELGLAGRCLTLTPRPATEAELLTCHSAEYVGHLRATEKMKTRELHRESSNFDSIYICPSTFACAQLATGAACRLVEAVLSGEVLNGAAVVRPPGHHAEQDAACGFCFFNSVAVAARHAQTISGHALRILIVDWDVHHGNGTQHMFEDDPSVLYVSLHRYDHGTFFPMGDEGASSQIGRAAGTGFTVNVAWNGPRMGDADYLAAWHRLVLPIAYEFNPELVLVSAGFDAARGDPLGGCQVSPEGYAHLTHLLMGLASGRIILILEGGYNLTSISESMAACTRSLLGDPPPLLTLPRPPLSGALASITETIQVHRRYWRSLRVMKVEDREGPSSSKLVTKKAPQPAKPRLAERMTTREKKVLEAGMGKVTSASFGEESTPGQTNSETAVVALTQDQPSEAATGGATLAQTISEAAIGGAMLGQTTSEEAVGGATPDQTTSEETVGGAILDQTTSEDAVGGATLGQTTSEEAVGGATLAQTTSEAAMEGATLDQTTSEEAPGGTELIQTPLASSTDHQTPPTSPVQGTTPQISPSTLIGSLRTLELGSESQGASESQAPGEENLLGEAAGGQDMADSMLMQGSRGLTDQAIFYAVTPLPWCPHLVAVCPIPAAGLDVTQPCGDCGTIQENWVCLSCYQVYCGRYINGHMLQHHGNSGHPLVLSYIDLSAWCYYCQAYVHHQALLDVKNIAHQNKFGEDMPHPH
Nature of the assay: Inhibition of human recombinant HDAC6 using Boc-Lys(acetyl)-AMC substrate incubated for 2 hrs by fluorescence based assay.

A further assay has as its target Histone deacetylase 1 (Homo sapiens, UniProt Q13547). Nature of the assay: Inhibition of human recombinant HDAC1 using Boc-Lys(acetyl)-AMC substrate incubated for 2 hrs by fluorescence based assay.
In a further assay the target is Histone deacetylase 3 (Homo sapiens, UniProt O15379). In words: Inhibition of human recombinant HDAC3 using Boc-Lys(acetyl)-AMC substrate incubated for 2 hrs by fluorescence based assay.
Sequence of Histone deacetylase 3 (O15379 whole entry): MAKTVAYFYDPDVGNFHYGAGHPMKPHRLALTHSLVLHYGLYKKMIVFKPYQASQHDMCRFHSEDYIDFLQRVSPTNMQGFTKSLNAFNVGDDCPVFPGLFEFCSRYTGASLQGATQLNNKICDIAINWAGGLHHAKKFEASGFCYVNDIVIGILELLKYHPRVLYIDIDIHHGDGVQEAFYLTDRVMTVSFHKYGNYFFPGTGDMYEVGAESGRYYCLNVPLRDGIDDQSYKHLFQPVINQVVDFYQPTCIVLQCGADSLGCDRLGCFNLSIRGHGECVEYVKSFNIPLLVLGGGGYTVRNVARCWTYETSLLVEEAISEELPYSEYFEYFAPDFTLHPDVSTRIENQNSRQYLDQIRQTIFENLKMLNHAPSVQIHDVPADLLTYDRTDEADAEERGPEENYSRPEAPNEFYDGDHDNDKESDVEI
A further assay concerns the target Histone deacetylase 2 (Homo sapiens, UniProt Q92769). Nature of the assay: Inhibition of human recombinant HDAC2 using Boc-Lys(acetyl)-AMC substrate incubated for 2 hrs by fluorescence based assay.
The next assay concerns MV4-11. Nature of the assay: cells. The settings on record: Homo sapiens, MV4-11, 48 h.

Where only a bound is given, the exact number is not on record here.

Sequence of Histone deacetylase 2 (Q92769 whole entry): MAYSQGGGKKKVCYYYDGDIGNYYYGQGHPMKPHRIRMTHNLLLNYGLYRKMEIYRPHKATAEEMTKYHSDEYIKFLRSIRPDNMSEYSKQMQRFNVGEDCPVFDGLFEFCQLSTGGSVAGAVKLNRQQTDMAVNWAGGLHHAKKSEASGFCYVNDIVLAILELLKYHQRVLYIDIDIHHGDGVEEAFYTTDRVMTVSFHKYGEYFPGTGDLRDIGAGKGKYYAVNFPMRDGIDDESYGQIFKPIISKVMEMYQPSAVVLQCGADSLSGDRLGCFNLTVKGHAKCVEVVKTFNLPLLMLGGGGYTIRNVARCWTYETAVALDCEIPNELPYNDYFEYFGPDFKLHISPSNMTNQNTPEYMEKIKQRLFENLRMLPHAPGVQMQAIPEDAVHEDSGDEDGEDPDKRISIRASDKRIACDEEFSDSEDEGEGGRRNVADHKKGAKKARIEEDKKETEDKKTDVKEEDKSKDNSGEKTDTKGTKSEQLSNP
Sequence of Histone deacetylase 1 (Q13547 whole entry): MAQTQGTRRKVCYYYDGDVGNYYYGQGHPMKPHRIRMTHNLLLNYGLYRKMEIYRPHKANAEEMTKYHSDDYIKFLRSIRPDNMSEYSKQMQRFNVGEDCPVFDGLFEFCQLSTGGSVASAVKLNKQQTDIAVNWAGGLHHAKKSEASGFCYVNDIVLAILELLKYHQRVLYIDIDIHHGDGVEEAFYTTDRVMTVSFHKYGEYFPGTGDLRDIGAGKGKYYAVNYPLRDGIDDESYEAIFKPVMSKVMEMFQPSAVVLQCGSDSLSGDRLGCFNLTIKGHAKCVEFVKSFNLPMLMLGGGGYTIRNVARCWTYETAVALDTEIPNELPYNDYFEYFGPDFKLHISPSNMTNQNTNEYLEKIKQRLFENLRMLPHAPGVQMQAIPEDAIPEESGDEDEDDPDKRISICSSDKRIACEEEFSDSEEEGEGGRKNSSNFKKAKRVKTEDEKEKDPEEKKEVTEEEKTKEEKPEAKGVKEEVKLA
Description for MV4-11: Antiproliferative activity against human MV4-11 AML cells assessed as cell viability measured after 48 hrs by multiplate reader method

Usually IC50 stands for the concentration needed to halve the response being measured. Turning to `CCCNNC(=O)c1ccc(CNC(=O)c2cc3ccccc3s2)cc1`, the IC50 in assay [1] was over 10000 nM.

`CCCNNC(=O)c1ccc(CNC(=O)c2cc3cc(F)ccc3[nH]2)cc1`: the IC50 in assay [1] is over 10000 nM; at Histone deacetylase 1, 12.9 nM; at Histone deacetylase 3 it was 1.61 nM; at Histone deacetylase 2, 52.7 nM; in the assay with MV4-11, 91.2 nM.

For the compound `CCCNNC(=O)c1ccc(CNC(=O)c2ccc3ccccc3c2)cc1`, the IC50 is over 10000 nM in assay [1]; 7.98 nM at Histone deacetylase 1; 0.89 nM on Histone deacetylase 3; 30.5 nM on Histone deacetylase 2; 43.6 nM in the assay on MV4-11.

With `CCCNNC(=O)c1ccc(CNC(=O)c2nc3ccccc3s2)cc1`, the IC50 was over 10000 nM in assay [1]; 9.73 nM at Histone deacetylase 1; 1.31 nM on Histone deacetylase 3; 42 nM on Histone deacetylase 2; 43.6 nM with MV4-11.

Consider `CCCNNC(=O)c1ccc(CNC(=O)c2cc3ccccc3cn2)cc1`, for which the IC50 was over 10000 nM in assay [1]; 8.8 nM at Histone deacetylase 1; 1.48 nM at Histone deacetylase 3; 30.9 nM on Histone deacetylase 2; 45.9 nM in the assay with MV4-11.

Consider `CCCNNC(=O)c1ccc(CNC(=O)c2ccc3cnccc3c2)cc1`, for which the IC50 in assay [1] was over 10000 nM; at Histone deacetylase 1 it was 17.1 nM; on Histone deacetylase 3, 1.03 nM; on Histone deacetylase 2, 39.6 nM; in the assay on MV4-11 it was 64.1 nM.

On to `CCCNNC(=O)c1ccc(CNC(=O)c2cc3cc(Br)ccc3o2)cc1`, for which the IC50 in assay [1] is over 10000 nM; on Histone deacetylase 1, 7.85 nM; on Histone deacetylase 3 it was 0.62 nM; on Histone deacetylase 2, 23.7 nM; in the assay with MV4-11, 159 nM.

On to `CCCNNC(=O)c1ccc(CNC(=O)c2ccc3cnccc3n2)cc1`, for which the IC50 in assay [1] is over 10000 nM; on Histone deacetylase 1, 16.2 nM; at Histone deacetylase 3, 2.03 nM; at Histone deacetylase 2 it was 41.4 nM; with MV4-11, 59.7 nM.

With `CCCNNC(=O)c1ccc(CNC(=O)c2cc3cc(Cl)ccc3o2)cc1`, the IC50 in assay [1] was over 10000 nM; on Histone deacetylase 1 it was 8.91 nM; on Histone deacetylase 3 it was 0.62 nM; at Histone deacetylase 2, 28.1 nM; in the assay on MV4-11, 248 nM.

As to `CCCNNC(=O)c1ccc(CNC(=O)c2cc3cc(Cl)ccc3[nH]2)cc1`, the IC50 was over 10000 nM in assay [1]; 13.8 nM on Histone deacetylase 1; 0.66 nM at Histone deacetylase 3; 46.1 nM at Histone deacetylase 2; 37.7 nM in the assay on MV4-11.

For `CCCNNC(=O)c1ccc(CNC(=O)c2nc3ccccc3[nH]2)cc1`, the IC50 in assay [1] was over 10000 nM; on Histone deacetylase 1, 11.3 nM; at Histone deacetylase 3, 1.44 nM; on Histone deacetylase 2, 33.4 nM; in the assay on MV4-11 it was 53.1 nM.

With `CCCNNC(=O)c1ccc(CNC(=O)c2cc3cc(OC)ccc3[nH]2)cc1`, the IC50 in assay [1] is over 10000 nM; on Histone deacetylase 1 it was 4.66 nM; at Histone deacetylase 3, 0.58 nM; at Histone deacetylase 2, 16.4 nM; in the assay with MV4-11, 37.5 nM.

`CCCNNC(=O)c1ccc(CNC(=O)c2cc3cc(F)ccc3o2)cc1`: the IC50 in assay [1] was over 10000 nM; at Histone deacetylase 1, 8.22 nM; on Histone deacetylase 3, 0.83 nM; on Histone deacetylase 2, 27.9 nM; in the assay on MV4-11 it was 56.5 nM.

As for `CCCNNC(=O)c1ccc(CNC(=O)c2cc3cc(OC)ccc3o2)cc1`, the IC50 in assay [1] is over 10000 nM; at Histone deacetylase 1 it was 7.4 nM; at Histone deacetylase 3, 0.28 nM; at Histone deacetylase 2 it was 26.1 nM; in the assay on MV4-11, 52.1 nM.

As to `CCCNNC(=O)c1ccc(CNC(=O)c2cc3ccccc3o2)cc1`, the IC50 is over 10000 nM in assay [1], 3.52 nM on Histone deacetylase 1, 0.38 nM on Histone deacetylase 3 and 15.1 nM at Histone deacetylase 2.

For `CCCNNC(=O)c1ccc(CNC(=O)c2cnc3ccccc3c2)cc1`, the IC50 in assay [1] was over 10000 nM; on Histone deacetylase 1, 13.7 nM; on Histone deacetylase 3, 1.79 nM; on Histone deacetylase 2, 59.6 nM; in the assay with MV4-11, 71 nM.

On to `CCCNNC(=O)c1ccc(CNC(=O)c2ccc3ccccc3n2)cc1`, for which the IC50 was over 10000 nM in assay [1]; 10.7 nM at Histone deacetylase 1; 0.9 nM on Histone deacetylase 3; 57.3 nM at Histone deacetylase 2; 57.8 nM in the assay on MV4-11.

With `C=CCOc1ccc2oc(C(=O)NCc3ccc(C(=O)NNCCC)cc3)cc2c1`, the IC50 in assay [1] was over 10000 nM; on Histone deacetylase 1, 11.7 nM; at Histone deacetylase 3, 0.85 nM; at Histone deacetylase 2 it was 35.8 nM; in the assay with MV4-11 it was 53.8 nM.

For the compound `CCCNNC(=O)c1ccc(CNC(=O)c2cc3cc(O)ccc3o2)cc1`, the IC50 in assay [1] was over 10000 nM; at Histone deacetylase 1, 3.91 nM; at Histone deacetylase 3, 0.51 nM; at Histone deacetylase 2 it was 16.1 nM; in the assay with MV4-11, 40 nM.

For the compound `CCCNNC(=O)c1ccc(CNC(=O)c2cc3cc(Br)ccc3[nH]2)cc1`, the IC50 in assay [1] was over 10000 nM; at Histone deacetylase 1, 58.3 nM; on Histone deacetylase 3, 1.31 nM; on Histone deacetylase 2 it was 186 nM; in the assay with MV4-11 it was 66.5 nM.

Take `CCCNNC(=O)c1ccc(CNC(=O)c2ccc3ccncc3c2)cc1`: the IC50 in assay [1] is over 10000 nM; on Histone deacetylase 1, 20.8 nM; on Histone deacetylase 3, 1.55 nM; at Histone deacetylase 2 it was 30.1 nM; in the assay on MV4-11 it was 74 nM.
